According to ChEMBL document CHEMBL1141621, “Constraining the amide bond in N-sulfonylated dipeptide VLA-4 antagonists” (Bioorg Med Chem Lett, 2008):

These compounds were tested against T1, Integrin alpha-4 (Homo sapiens, UniProt P13612) (assay: Displacement of [125I]VCAMIg from VLA4 expressed in Jurkat cells).
T1 sequence (P13612 whole entry): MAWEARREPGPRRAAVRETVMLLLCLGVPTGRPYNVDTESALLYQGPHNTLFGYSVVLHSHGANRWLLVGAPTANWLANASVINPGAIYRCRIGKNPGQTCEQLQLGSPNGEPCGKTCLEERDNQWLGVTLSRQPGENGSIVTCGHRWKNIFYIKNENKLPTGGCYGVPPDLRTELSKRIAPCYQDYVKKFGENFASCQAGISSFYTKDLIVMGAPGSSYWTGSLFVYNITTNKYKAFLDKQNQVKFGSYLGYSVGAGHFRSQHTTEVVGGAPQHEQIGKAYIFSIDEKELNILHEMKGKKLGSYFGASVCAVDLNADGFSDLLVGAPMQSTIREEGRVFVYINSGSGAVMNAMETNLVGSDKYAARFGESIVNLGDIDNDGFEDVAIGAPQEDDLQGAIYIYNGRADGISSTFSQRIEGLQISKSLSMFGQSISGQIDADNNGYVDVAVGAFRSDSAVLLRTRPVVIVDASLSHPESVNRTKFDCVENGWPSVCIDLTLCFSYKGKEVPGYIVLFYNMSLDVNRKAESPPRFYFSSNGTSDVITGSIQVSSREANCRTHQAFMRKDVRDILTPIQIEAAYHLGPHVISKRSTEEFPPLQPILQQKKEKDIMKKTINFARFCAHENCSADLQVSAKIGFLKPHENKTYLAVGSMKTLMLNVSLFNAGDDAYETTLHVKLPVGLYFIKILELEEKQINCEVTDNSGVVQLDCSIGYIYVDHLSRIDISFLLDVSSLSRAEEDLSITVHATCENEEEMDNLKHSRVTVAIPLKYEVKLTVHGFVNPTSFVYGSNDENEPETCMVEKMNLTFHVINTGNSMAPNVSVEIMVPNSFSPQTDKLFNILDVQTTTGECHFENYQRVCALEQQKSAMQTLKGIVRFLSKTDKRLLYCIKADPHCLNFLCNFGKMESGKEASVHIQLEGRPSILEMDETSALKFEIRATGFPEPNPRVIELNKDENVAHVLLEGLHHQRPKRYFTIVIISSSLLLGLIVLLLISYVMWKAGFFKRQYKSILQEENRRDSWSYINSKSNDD
Assay type: cell-based

Going from `CC(C)C(c1nc(Cc2ccc3ccccc3c2)c(C(=O)O)[nH]1)N(C)S(=O)(=O)c1cc(Cl)cc(Cl)c1` (stereo not given) to `O=C(O)c1[nH]c(CN(C2CCCCC2)S(=O)(=O)c2cc(Cl)cc(Cl)c2)nc1Cc1ccc2ccccc2c1`, the IC50 falls from 2540 nM to 285 nM (8.9-fold). The second is the more potent here.

First: O=C(O)C(Cc1ccccc1)N1C[C@@H]2CCN(S(=O)(=O)c3cc(Cl)cc(Cl)c3)[C@@H]2C1=O (stereo not given in full)
Second: O=C(O)[C@H](Cc1ccccc1)NC(=O)[C@@H]1CCCN1S(=O)(=O)c1cc(Cl)cc(Cl)c1
The IC50 of the first is 1500-fold higher: 2100 nM for the first, 1.4 nM for the second. The second is the more potent here.

Going from `COc1ccccc1-c1ccc(C[C@H](NC(=O)[C@@H]2CCCN2S(=O)(=O)c2cc(Cl)cc(Cl)c2)C(=O)O)cc1` to `O=C(O)c1nc(CN(C2CCCCC2)S(=O)(=O)c2cc(Cl)cc(Cl)c2)[nH]c1Cc1ccc(-c2ccccc2)cc1`, the IC50 rises from 0.64 nM to 237 nM (370-fold). The first is the more potent here.

These compounds were tested against Integrin alpha-4 (Homo sapiens) (UniProt P13612) (assay: Displacement of [125I]VCAMIg from VLA4 expressed in Jurkat cells at 100 uM).
Assay type: cell-based

Going from `O=C(O)c1[nH]c(C2CCCN2S(=O)(=O)c2cc(Cl)cc(Cl)c2)nc1-c1ccc2ccccc2c1` (stereo not given) to `O=C(O)c1[nH]c(C2CCCN2S(=O)(=O)c2cc(Cl)cc(Cl)c2)nc1Cc1ccc2ccccc2c1` (stereo not given), the inhibition rises from 8% to 30%.

First: O=C(O)c1[nH]c(CN(C2CCCCC2)S(=O)(=O)c2cc(Cl)cc(Cl)c2)nc1-c1ccc(-c2ccccc2)cc1
Second: O=C(O)c1nc(C2CCCN2S(=O)(=O)c2cc(Cl)cc(Cl)c2)sc1-c1ccc2ccccc2c1 (stereo not given)
The inhibition of the first is higher: 45% for the first, 19% for the second.
